The values that follow come from patent US20030087395A1, “Cardiotrophin-like cytokine” (Human Genome Sciences, Inc., priority 1997, published 2003).

Assay [1] has as its system STATS. The note with it: numbers of the STATs activated; adapted from Schidler and Darnell review; cited from earlier work.
The subject of assay [2] is GAS or ISRE. To be noted: element bound; adapted from Schidler and Darnell review; cited from earlier work.
Assay [3] deals with Primary cardiomyocytes. Briefly: Cardiac myocyte hypertrophy, cell counts in culture. To be noted: counted 48 to 72 hours post-treatment; four fields in three independent cultures, averaged. The class given is cell-based. Here is the method: (§1) Primary cardiomyocytes, primary neuronal cultures, or other cells are plated at a low density and cultured using standard culturing techniques. […] Cultures are evaluated at a point between 48 and 72 hours post-treatment by counting the number of cells in four non-overlapping fields in three independent cultures and averaging the results.

Assay [4] has as its system primary neuronal cultures (sympathetic neuron counts). Briefly: Neuron counts in primary neuronal cultures. The format is cell-based. To be noted: counted 48 to 72 hours post-treatment; four fields in three independent cultures, averaged. As to the method:
as §1

For the molecule IL-13: g-C family ligand (lymphocyte), the STATS in assay [1] was 6. In addition, the “GAS or ISRE” value in assay [2] was “GAS”.
PDGF: the STATS in assay [1] is listed as 1,3.
As to “EGF: ligand of Receptor Tyrosine Kinases”, in assay [1], the STATS is recorded as 1,3. In addition, the “GAS or ISRE” value in assay [2] is reported as “GAS (IRF1)”.
For the molecule IL-5: gp140 family ligand (myeloid), the STATS in assay [1] was 5. Moreover, the “GAS or ISRE” value in assay [2] is recorded as “GAS”.
As for IL-15: g-C family ligand, the STATS in assay [1] is given as 5. Besides, the “GAS or ISRE” value in assay [2] is “GAS”.
With GM-CSF: gp140 family ligand (myeloid), the STATS in assay [1] is on record as 5. The “GAS or ISRE” value in assay [2] is “GAS”.
On to `CNC[C@H](O)c1cccc(O)c1` [Phenylephrine, reference compound], for which the “No. Active Myocytes” value in assay [3] came out at 92. Further, the “No. Neurons” value in assay [4] was 28.
As to GH: Growth hormone family ligand, in assay [1], the STATS was 5.
IL-9: g-C family ligand (lymphocytes): the STATS in assay [1] was 5. In addition, the “GAS or ISRE” value in assay [2] is on record as “GAS”.
For IL-6: gp130 family ligand (Pleiotropic), in assay [1], the STATS was 1,3. Further, the “GAS or ISRE” value in assay [2] is listed as “GAS”.

B1: IL-4: g-C family ligand (lymph/myeloid) (protein, UniProt P05112 25-153, looked up)
Interleukin-4: HKCDITLQEIIKTLNSLTEQKTLCTELTVTDIFAASKNTTEKETFCRAATVLRQFYSHHEKDTRCLGATAQQFHRHKQLIRFLKRLDRNLWGLAGLNSCPVKEANQSTLENFLERLKTIMREKYSKCSS
In the case of B1, the STATS in assay [1] is given as 6. Also, the “GAS or ISRE” value in assay [2] is on record as “GAS”.

B2: IL-11: gp130 family ligand (Pleiotropic) (protein, UniProt P20809 22-199, looked up)
Interleukin-11: PGPPPGPPRVSPDPRAELDSTVLLTRSLLADTRQLAAQLRDKFPADGDHNLDSLPTLAMSAGALGALQLPGVLTRLRADLLSYLRHVQWLRRAGGSSLKTLEPELGTLQARLDRLLRRLQLLMSRLALPQPPPDPPAPPLAPPSSAWGGIRAAHAILGGLHLTLDWAVRGLLLLKTRL
With B2, the STATS in assay [1] was 1,3.

B3: CNTF: gp130 family ligand (Pleiotropic) (protein)
chain: MAFTEHSPLTPHRRDLCSRSIWLARKIRSDLTALTESYVKHQGLNKNINLDSADGMPVASTDQWSELTEAERLQENLQAYRTFHVLLARLLEDQQVHFTPTEGDFHQAIHTLLLQVAAFAYQIEELMILLEYKIPRNEADGMPINVGDGGLFEKKLWGLKVLQELSQWTVRSIHDLRFISSHQTGIPARGSHYIANNKKM
modifications: homo sapiens
Take B3: the STATS in assay [1] is reported as 1,3.

B4: CSF-1: ligand of Receptor Tyrosine Kinases (protein, UniProt P09603 33-554, looked up)
Macrophage colony-stimulating …: EEVSEYCSHMIGSGHLQSLQRLIDSQMETSCQITFEFVDQEQLKDPVCYLKKAFLLVQDIMEDTMRFRDNTPNAIAIVQLQELSLRLKSCFTKDYEEHDKACVRTFYETPLQLLEKVKNVFNETKNLLDKDWNIFSKNCNNSFAECSSQDVVTKPDCNCLYPKAIPSSDPASVSPHQPLAPSMAPVAGLTWEDSEGTEGSSLLPGEQPLHTVDPGSAKQRPPRSTCQSFEPPETPVVKDSTIGGSPQPRPSVGAFNPGMEDILDSAMGTNWVPEEASGEASEIPVPQGTELSPSRPGGGSMQTEPARPSNFLSASSPLPASAKGQQPADVTGTALPRVGPVRPTGQDWNHTPQKTDHPSALLRDPPEPGSPRISSLRPQGLSNPSTLSAQPQLSRSHSSGSVLPLGELEGRRSTRDRRSPAEPEGGPASEGAARPLPRFNSVPLTDTGHERQSEGSFSPQLQESVFHLLVPSVILVLLAVGGLLFYRWRRRSHQEPQRADSPLEQPEGSPLTQDDRQVELPV
For B4, the STATS in assay [1] is 1,3. Further, the “GAS or ISRE” value in assay [2] is given as “GAS (not”.

B5: IL-12: gp130 family ligand (Pleiotropic) (protein, UniProt P29459 23-219; P29460 23-328, looked up)
Interleukin-12 subunit alpha: RNLPVATPDPGMFPCLHHSQNLLRAVSNMLQKARQTLEFYPCTSEEIDHEDITKDKTSTVEACLPLELTKNESCLNSRETSFITNGSCLASRKTSFMMALCLSSIYEDLKMYQVEFKTMNAKLLMDPKRQIFLDQNMLAVIDELMQALNFNSETVPQKSSLEEPDFYKTKIKLCILLHAFRIRAVTIDRVMSYLNAS
Interleukin-12 subunit beta: IWELKKDVYVVELDWYPDAPGEMVVLTCDTPEEDGITWTLDQSSEVLGSGKTLTIQVKEFGDAGQYTCHKGGEVLSHSLLLLHKKEDGIWSTDILKDQKEPKNKTFLRCEAKNYSGRFTCWWLTTISTDLTFSVKSSRGSSDPQGVTCGAATLSAERVRGDNKEYEYSVECQEDSACPAAEESLPIEVMVDAVHKLKYENYTSSFFIRDIIKPDPPKNLQLKPLKNSRQVEVSWEYPDTWSTPHSYFSLTFCVQVQGKSKREKKDRVFTDKTSATVICRKNASISVRAQDRYYSSSWSEWASVPCS
Turning to B5, in assay [1], the STATS is on record as 1,3.

B6: OnM: gp130 family ligand (Pleiotropic) (protein, UniProt P13725 26-221, looked up)
Oncostatin-M: AAIGSCSKEYRVLLGQLQKQTDLMQDTSRLLDPYIRIQGLDVPKLREHCRERPGAFPSEETLRGLGRRGFLQTLNATLGCVLHRLADLEQRLPKAQDLERSGLNIEDLEKLQMARPNILGLRNNIYCMAQLLDNSDTAEPTKAGRGASQPPTPTPASDAFQRKLEGCRFLHGYHRFMHSVGRVFSKWGESPNRSRR
On to B6, for which the STATS in assay [1] is 1,3.

B7: IL-10: ligand of the IFN family in the Jaks-STATs table (protein, UniProt P22301 19-178, looked up)
Interleukin-10: SPGQGTQSENSCTHFPGNLPNMLRDLRDAFSRVKTFFQMKDQLDNLLLKESLLEDFKGYLGCQALSEMIQFYLEEVMPQAENQDPDIKAHVNSLGENLKTLRLRLRRCHRFLPCENKSKAVEQVKNAFNKLQEKGIYKAMSEFDIFINYIEAYMTMKIRN
As to B7, the STATS in assay [1] is listed as 1,3.

B8: G-CSF: gp130 family ligand (Pleiotropic) (protein, UniProt P09919 31-207, looked up)
Granulocyte …: TPLGPASSLPQSFLLKCLEQVRKIQGDGAALQEKLVSECATYKLCHPEELVLLGHSLGIPWAPLSSCPSQALQLAGCLSQLHSGLFLYQGLLQALEGISPELGPTLDTLQLDVADFATTIWQQMEELGMAPALQPTQGAMPAFASAFQRRAGGVLVASHLQSFLEVSYRVLRHLAQP
Take B8: in assay [1], the STATS is reported as 1,3.

B9: IL-7: g-C family ligand (lymphocytes) (protein, UniProt P13232 26-177, looked up)
Interleukin-7: DCDIEGKDGKQYESVLMVSIDQLLDSMKEIGSNCLNNEFNFFKRHICDANKEGMFLFRAARKLRQFLKMNSTGDFDLHLLKVSEGTTILLNCTGQVKGRKPAALGEAQPTKSLEENKSLKEQKKLNDLCFLKRLLQEIKTCWNKILMGTKEH
For B9, the STATS in assay [1] was 5. In addition, the “GAS or ISRE” value in assay [2] was “GAS”.
